Results reported in ChEMBL document CHEMBL1201862, “PubChem BioAssay data set” (2004).
Activity calls are given as the source filed them.

Legend:
[1] = molecular target: T1, Polyadenylate-binding protein 1 (Homo sapiens, UniProt P11940); assay: MLLE binding blockers, Cy5 peptide tracer – biochemical, fluorescence polarization, Cy5-PAM2 peptide, secondary, miRNA deadenylation inhibitor project, dose response (AID 602260); assay type: functional; details: read-out: IC50_Mean
[2] = molecular target: ORF 73 (Human herpesvirus 8, UniProt O40947); assay: KSHV LANA DNA-binding disruption – biochemical, fluorescence polarization, cherry-picked samples, dose response (AID 504725); parameters: species or system Human gammaherpesvirus 8;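 further: fluorescence polarization of a labeled DNA duplex reporting LANA DNA binding; potency is for inhibitors that block LANA binding to the DNA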
Chain of ORF 73 (O40947 whole entry): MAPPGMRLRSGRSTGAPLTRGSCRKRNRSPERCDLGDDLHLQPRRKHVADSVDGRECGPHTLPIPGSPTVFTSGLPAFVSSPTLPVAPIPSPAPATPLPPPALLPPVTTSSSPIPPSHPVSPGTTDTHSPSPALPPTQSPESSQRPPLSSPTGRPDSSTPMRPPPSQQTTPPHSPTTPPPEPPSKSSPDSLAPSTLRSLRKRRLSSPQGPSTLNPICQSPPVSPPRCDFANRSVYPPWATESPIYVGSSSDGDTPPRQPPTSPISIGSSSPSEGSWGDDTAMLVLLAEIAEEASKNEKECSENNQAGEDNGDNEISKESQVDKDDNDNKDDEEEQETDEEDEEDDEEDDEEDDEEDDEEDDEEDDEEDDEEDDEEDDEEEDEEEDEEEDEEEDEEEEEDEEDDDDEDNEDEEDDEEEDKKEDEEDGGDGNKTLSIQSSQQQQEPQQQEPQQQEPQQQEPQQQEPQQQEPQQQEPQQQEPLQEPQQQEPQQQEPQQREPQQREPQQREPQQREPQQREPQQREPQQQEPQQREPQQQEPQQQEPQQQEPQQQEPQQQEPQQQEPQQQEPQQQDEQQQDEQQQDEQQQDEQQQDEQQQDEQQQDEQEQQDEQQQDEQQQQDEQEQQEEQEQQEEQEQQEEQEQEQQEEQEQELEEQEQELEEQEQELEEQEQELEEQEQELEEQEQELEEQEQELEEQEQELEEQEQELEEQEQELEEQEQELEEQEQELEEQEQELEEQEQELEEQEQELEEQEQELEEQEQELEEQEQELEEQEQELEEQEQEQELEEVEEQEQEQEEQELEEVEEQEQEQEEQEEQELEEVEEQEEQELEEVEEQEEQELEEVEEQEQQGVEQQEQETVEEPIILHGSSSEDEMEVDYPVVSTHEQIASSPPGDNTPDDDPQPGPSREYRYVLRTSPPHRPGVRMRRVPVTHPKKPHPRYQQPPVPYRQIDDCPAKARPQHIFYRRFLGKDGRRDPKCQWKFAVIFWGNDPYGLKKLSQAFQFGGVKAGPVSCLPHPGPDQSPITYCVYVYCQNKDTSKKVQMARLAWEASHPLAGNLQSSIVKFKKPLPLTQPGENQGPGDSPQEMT

[3] = molecular target: T2, Rac GTPase-activating protein 1 (Homo sapiens, UniProt Q9H0H5); assay: blockers of MgcRacGAP-driven Rac1 GTP hydrolysis – biochemical, ADP Hunter fluorescence, primary and confirmatory, confirmation (AID 624330); assay type: functional
T2 sequence (Q9H0H5 whole entry): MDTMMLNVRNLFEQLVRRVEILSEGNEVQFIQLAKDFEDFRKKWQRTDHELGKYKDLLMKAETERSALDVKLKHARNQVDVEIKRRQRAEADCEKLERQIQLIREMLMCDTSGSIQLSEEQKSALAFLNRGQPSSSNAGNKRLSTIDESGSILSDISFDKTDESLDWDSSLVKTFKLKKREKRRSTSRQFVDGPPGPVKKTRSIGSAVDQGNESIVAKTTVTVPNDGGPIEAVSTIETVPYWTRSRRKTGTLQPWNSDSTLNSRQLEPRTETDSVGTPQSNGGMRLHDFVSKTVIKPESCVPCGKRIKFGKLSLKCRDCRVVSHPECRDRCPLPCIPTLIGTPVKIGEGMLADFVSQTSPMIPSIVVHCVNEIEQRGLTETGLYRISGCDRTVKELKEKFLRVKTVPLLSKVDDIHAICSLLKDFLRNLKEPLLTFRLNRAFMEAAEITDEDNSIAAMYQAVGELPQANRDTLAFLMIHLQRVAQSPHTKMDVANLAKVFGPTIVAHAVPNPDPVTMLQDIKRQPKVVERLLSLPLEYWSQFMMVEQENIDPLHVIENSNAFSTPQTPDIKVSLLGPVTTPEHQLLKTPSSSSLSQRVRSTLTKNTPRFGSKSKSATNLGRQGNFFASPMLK

[4] = molecular target: Genome polyprotein (dengue virus type 2, UniProt P29990); assay: flavivirus cap methylation enzyme inhibition – biochemical, confirmation dose response, primary screen (AID 588689); assay type: functional
Chain of Genome polyprotein (P29990 2492-3391 limits assumed): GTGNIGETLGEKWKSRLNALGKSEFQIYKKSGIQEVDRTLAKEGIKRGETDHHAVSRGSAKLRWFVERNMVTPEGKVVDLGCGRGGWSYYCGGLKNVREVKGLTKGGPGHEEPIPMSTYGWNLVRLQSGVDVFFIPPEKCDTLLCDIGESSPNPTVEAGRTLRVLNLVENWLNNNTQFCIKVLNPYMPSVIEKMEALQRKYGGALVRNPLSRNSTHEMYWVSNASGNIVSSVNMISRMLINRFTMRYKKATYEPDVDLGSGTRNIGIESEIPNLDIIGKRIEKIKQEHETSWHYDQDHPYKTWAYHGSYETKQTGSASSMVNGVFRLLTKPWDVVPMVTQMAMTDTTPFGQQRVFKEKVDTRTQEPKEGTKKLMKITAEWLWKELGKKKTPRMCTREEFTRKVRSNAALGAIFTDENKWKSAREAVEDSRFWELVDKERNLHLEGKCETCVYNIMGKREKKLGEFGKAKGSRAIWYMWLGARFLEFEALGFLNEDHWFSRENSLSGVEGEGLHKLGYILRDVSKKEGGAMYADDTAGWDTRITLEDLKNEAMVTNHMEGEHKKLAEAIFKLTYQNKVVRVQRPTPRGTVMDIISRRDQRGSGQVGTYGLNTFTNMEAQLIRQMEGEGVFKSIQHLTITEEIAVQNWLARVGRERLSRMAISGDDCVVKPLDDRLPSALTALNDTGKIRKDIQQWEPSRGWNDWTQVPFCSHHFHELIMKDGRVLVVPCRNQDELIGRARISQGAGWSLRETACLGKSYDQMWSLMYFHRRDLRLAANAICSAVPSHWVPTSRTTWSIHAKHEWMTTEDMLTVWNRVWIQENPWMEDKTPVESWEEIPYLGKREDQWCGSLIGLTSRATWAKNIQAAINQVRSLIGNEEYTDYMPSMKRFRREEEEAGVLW

[5] = molecular target: T3, RNA-binding protein pos-1 (Caenorhabditis elegans, UniProt G5EF15); assay: disruptors of C. elegans POS-1 RNA interaction – biochemical, fluorescence polarization, dose response (AID 1964);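 further: purified POS-1 fused to maltose binding protein made in E. coli; potency of compounds blocking POS-1 binding to fluorescent RNA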
T3 sequence (G5EF15 whole entry): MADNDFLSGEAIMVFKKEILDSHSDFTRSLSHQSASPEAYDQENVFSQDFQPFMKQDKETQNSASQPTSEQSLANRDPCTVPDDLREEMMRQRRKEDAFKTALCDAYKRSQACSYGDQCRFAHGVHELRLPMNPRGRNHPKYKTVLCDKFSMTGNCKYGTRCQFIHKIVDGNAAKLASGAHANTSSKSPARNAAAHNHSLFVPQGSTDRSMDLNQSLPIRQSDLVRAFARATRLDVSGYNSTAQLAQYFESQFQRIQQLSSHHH

[6] = molecular target: T4, Small ubiquitin-related modifier 1 (Homo sapiens, UniProt P63165); assay: SUMO1 protein interaction blockers, potency – biochemical, fluorescence polarization, uHTS hits, dose response (AID 624382); assay type: functional; details: read-out: IC50_Mean
T4 sequence (P63165 whole entry): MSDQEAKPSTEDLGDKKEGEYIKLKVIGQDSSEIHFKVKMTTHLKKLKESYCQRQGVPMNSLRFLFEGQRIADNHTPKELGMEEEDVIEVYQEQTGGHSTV

[7] = molecular target: T4, Small ubiquitin-related modifier 1; assay: SUMO1 protein-protein binding blockers, potency – biochemical, FRET, dose response (AID 624383); assay type: functional; details: read-out: IC50_Mean
[8] = molecular target: T5, Zinc finger protein mex-5 (Caenorhabditis elegans, UniProt Q9XUB2); assay: potency of MEX-5 RNA-binding blockers – biochemical, C. elegans, fluorescence polarization, dose response (AID 1960)
T5 sequence (Q9XUB2 whole entry): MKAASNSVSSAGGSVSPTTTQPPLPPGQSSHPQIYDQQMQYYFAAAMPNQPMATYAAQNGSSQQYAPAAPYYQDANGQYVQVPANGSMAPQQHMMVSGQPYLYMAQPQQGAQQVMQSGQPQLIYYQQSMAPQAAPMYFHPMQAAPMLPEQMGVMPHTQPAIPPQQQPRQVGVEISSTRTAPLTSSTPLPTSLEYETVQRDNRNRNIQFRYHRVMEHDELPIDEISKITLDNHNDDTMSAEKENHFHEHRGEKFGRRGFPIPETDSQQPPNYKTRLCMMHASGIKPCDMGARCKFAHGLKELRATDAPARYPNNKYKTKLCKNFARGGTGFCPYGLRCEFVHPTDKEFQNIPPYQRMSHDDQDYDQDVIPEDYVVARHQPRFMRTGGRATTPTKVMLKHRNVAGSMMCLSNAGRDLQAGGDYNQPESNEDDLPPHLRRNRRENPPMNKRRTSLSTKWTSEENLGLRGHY

[9] = molecular target: T1, Polyadenylate-binding protein 1; assay: MLLE domain peptide-binding blockers, IC50 – biochemical, fluorescence polarization, FITC-PAM2 peptide, dose response (AID 602259); assay type: functional; details: read-out: IC50_Mean
[10] = system: Vero; assay: viability of Vero cells under compound – cytotoxicity control for flavivirus capping enzyme inhibitors (AID 588742); assay type: functional; details: Chlorocebus sabaeus
[11] = molecular target: Nonstructural protein 1 (Influenza A virus, UniProt Q194T2); assay type: functional, Influenza A virus (A/California/07/2009(H1N1))
Chain of Nonstructural protein 1 (Q194T2 whole entry): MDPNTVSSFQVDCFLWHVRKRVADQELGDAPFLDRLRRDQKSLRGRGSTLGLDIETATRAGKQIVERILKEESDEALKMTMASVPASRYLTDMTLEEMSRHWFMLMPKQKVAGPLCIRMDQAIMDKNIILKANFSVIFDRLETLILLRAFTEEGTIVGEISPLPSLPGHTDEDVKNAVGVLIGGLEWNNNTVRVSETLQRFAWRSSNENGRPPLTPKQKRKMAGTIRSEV

[12] = molecular target: Heat shock protein HSP 90-alpha (Homo sapiens, UniProt P07900); assay type: functional, organism-based
[13] = NIH3T3 cell viability loss – ATP luminescence, mouse fibroblasts, counter-screen, dose response (AID 2010); assay type: functional, cell-based;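 further: cells exposed to compound for about 90 hours before reading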
[14] = molecular target: Exodeoxyribonuclease V (Escherichia coli (strain K12), UniProt P04993+P07648+P08394); assay: RecBCD inhibition via phage-restricted bacterial growth – absorbance, V66 E. coli, mutant T4 phage, counter-screen for AddAB inhibitor project, dose response (AID 492957); assay type: functional, cell-based, Escherichia coli str. K-12 substr. MG1655
[15] = Trypanosoma cruzi growth suppression in host cells – NIH3T3 host cells, beta-gal luminescence, confirmation (AID 2044); assay type: functional, cell-based;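 further: intracellular parasites grown in NIH/3T3 mouse fibroblasts as host cells; luminescent beta-galactosidase reporter signal from transgenic T. cruzi replicating inside host cells; inhibitors lower the luminescence signal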
[16] = reduction of Shn3 3'UTR-driven luciferase in osteoblasts – cell-based, Clone20 osteoblasts, firefly luciferase, cherry-picked, dose response (AID 624132); assay type: functional;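 further: firefly luciferase luminescence from reporter carrying the Shn3 3'UTR in osteoblasts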
[17] = molecular target: ATP-dependent molecular chaperone HSP82 (Candida albicans (strain WO-1) (Yeast), UniProt C4YTQ8); assay: steroid-induced GRE reporter decrease in yeast – S. cerevisiae, luminescence, Hsp90 inhibitor project, dose response (AID 2400); assay type: functional, cell-based;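 further: beta-galactosidase luminescence from glucocorticoid response element reporter as proxy for Hsp90 function; inhibitor potency where signal loss means Hsp90 inhibition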
Chain of ATP-dependent molecular chaperone HSP82 (C4YTQ8 whole entry): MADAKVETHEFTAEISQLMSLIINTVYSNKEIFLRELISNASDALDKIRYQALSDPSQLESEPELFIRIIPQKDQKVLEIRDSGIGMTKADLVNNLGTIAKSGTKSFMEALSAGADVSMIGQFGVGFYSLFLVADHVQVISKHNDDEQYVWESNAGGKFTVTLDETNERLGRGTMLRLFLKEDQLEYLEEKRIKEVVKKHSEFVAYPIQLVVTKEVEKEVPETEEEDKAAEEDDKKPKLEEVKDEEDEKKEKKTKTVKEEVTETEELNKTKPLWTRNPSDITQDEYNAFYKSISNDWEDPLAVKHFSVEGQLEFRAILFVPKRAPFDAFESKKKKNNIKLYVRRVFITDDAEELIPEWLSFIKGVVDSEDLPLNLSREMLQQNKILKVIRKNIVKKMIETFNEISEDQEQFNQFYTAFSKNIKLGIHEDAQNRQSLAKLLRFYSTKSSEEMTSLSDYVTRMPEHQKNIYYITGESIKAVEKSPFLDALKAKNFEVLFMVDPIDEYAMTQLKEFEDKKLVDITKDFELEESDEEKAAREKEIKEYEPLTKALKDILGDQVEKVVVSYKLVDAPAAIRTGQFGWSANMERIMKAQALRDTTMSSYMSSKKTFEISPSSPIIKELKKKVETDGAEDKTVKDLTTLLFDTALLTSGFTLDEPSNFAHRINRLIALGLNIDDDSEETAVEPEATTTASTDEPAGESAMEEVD

[18] = loss of viability in HepG2 cells – cell-based, CellTiter-Glo, cherry-picked, cytotoxicity control for Shn3 inhibitor project, dose response (AID 624134); assay type: functional
[19] = system: HEK293; assay: SAR Analysis of small molecule inhibitors of T-cell specific antigen receptor-induced NF-kB activation in a HEK-293T cell line using a luminescence assay - Set 2. [Related pubchem assays (depositor defined):AID435003, AID435012, AID489026]; assay type: functional, cell-based; details: Homo sapiens
[20] = NIH-3T3 fibroblast cytotoxicity, dose response, cytotoxicity control, cell-based, fluorescence, Alamar Blue, secondary assay (AID 2327); assay type: functional;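 further: NIH-3T3 mouse fibroblasts cultured with fluconazole at 8 µg/mL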
[21] = cells; assay type: functional, cell-based
[22] = system: HEK293; assay: SAR Analysis of small molecule inhibitors of T-cell specific antigen receptor-induced NF-kB activation in a HEK-293T cell line using a luminescence assay. [Related pubchem assays (depositor defined):AID435003, AID435012, AID489026]; assay type: functional, cell-based; details: Homo sapiens
[23] = non-specific 3'UTR reporter inhibition in Clone20-Shn3RL – cell-based, Renilla luciferase, cherry-picked, counter-screen for Shn3 inhibitor project, dose response (AID 624133); assay type: functional
[24] = system: Jurkat; assay: SAR Analysis of small molecule inhibitors of T-cell specific antigen receptor-induced NF-kB activation in a Jurkat cell line using a luminescence assay. [Related pubchem assays (depositor defined):AID435003, AID435012, AID465]; assay type: functional, cell-based; details: Homo sapiens
[25] = system: Jurkat; assay: SAR Analysis of small molecule inhibitors of T-cell specific antigen receptor-induced NF-kB activation in a Jurkat cell line using a luminescence assay - Set 2. [Related pubchem assays (depositor defined):AID435003, AID435012, AID465]; assay type: functional, cell-based; details: Homo sapiens
[26] = system: INS1; assay: INS-1E survival protection against cytokine death – cell-based, luminescence, retest, dose response (AID 449756); assay type: functional; details: Rattus norvegicus;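 further: cell death triggered by IL-1 beta plus TNF-alpha plus IFN-gamma mixture; protective hits raise ATP signal compared with cytokine alone wells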
[27] = fluconazole-exposed Candida albicans growth modulators – fluorescence, retest, confirmation (AID 2467); assay type: functional, cell-based
[28] = molecular target: T6, Serine/threonine-protein phosphatase (Candida dubliniensis (strain CD36 / CBS 7987 / NCPF 3949 / NRRLY-17841) (Yeast), UniProt B9W6M3); assay: blockers of CaCl2-induced CDRE-lacZ signaling – S. cerevisiae, luminescence, secondary, dose response (AID 2388); assay type: functional, cell-based;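 further: yeast reporter cells carrying a calcineurin-responsive lacZ construct stimulated with calcium chloride; luminescent beta-galactosidase reporter signal in whole cells rather than isolated phosphatase activity; potency for inhibition where a drop in reporter signal means calcineurin blockade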
T6 sequence (B9W6M3 whole entry): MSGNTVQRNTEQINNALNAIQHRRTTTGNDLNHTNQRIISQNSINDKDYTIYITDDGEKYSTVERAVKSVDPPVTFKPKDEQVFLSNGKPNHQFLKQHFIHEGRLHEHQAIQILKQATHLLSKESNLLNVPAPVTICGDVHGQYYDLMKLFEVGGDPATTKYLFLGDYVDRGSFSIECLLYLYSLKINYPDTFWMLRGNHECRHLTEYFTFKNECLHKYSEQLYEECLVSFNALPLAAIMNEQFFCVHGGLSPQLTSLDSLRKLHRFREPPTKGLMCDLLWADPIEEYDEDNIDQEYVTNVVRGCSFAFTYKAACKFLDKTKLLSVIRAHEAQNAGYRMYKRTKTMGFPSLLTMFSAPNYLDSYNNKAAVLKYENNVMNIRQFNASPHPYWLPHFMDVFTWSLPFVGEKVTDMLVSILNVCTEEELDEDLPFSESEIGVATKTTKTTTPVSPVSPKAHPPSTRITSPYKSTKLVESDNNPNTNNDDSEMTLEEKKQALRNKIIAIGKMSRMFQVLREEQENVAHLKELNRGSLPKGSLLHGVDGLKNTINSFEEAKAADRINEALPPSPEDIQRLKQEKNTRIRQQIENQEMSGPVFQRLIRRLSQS

[29] = Counterscreen for AddAB inhibitors: absorbance-based bacterial cell-based high throughput dose response assay for inhibitors of bacterial viability. [Related pubchem assays (depositor defined):AID435030, AID449728, AID449731, AID488942, AID488955, AID488956]; assay type: functional
[30] = cells; assay type: functional, cell-based; remark: listed apart in the source
[31] = system: HEK293; assay: HEK293T cell viability loss, resazurin readout – resazurin fluorescence, cytotoxicity control for NF-kB activator project, SAR follow-up (AID 493251); assay type: functional, cell-based

T1 sequence (P11940 whole entry): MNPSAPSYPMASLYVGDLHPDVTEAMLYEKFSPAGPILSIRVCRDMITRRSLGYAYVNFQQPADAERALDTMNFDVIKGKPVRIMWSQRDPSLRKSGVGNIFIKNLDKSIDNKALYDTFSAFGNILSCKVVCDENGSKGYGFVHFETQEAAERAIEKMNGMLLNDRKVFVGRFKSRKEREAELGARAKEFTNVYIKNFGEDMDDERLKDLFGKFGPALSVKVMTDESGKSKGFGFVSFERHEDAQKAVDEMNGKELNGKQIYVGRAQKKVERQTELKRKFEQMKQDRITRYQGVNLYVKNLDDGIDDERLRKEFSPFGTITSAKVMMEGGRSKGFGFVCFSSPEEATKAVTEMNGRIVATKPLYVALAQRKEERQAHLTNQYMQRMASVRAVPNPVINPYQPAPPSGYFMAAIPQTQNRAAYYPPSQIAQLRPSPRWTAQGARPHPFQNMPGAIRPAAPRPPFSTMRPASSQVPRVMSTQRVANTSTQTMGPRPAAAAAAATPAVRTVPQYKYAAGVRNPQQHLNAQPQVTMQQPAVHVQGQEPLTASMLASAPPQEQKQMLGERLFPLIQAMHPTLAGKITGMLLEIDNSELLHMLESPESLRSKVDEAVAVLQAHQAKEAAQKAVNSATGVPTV

With `CCOC(=O)C1Nc2ccc(C(=O)O)cc2C2C=CCC12` (configuration not stated) the IC50 [1] was > 66 µM (inactive), the AC50 [2] was 42.9 µM (active) and the IC50 [3] was 305 µM (active). The IC50 [4] was 44.9 µM (active), the EC50 [5] was 38.9 µM (active) and the IC50 [6] was > 66.6 µM (inactive). The IC50 [7] was 39 µM (inactive), the EC50 [8] was 20.3 µM (active) and the IC50 [9] was > 66 µM (inactive). For the same molecule, the CC50 [10] was > 40 µM (active).
For `CCCC(=O)NC(c1ccccc1)c1ccc2cccnc2c1O` (configuration not stated), the IC50 [11] was 21.5 µM (active), the AC50 [12] was 4.65 µM (active) and the EC50 [13] was 1.01 µM (active). For the same molecule, the IC50 [14] was > 119 µM (inactive), the EC50 [15] was 0.565 µM (active) and the AC50 [16] was 1.99 µM (active). For the same molecule, the EC50 [17] was > 160 µM (inactive), the AC50 [18] was 2.88 µM (active) and the IC50 [19] was 10.5 µM (active). The EC50 [20] was 16.6 µM (inconclusive), the EC50 [21] was 6.78 µM (active) and the IC50 [22] was 7.31 µM (active). The AC50 [23] was 1.89 µM (active), the IC50 [24] was 3.81 µM (active) and the IC50 [25] was 6.27 µM (active). For the same molecule, the AC50 [26] was 0.664 µM (active), the EC50 [27] was 0.463 µM (active) and the EC50 [28] was > 180 µM (inactive). The IC50 [29] was > 119 µM (inactive), the EC50 [30] was > 350 µM (not active) and the IC50 ([31]; Homo sapiens, HEK293) was 13.6 µM (active). The IC50 ([31]; hek293) was 8.74 µM (active).
